Patent US9334286B2, “Pharmacologically active compounds” (Cancer Research Technology Limited, priority 2012, dated 2016)

Molecular target: full length MPS1 (Homo sapiens (Human), UniProt P33981)
Assay: Measurement of inhibition of MPS1 kinase (Caliper EZ reader, fluorescent labelled peptide H236)
Assay type: biochemical
Conditions: full length MPS1 12.5 nM or 3 nM, peptide H236 5 μM, ATP 10 μM, 60 min at room temperature

Sequence of full length MPS1 (P33981 whole entry): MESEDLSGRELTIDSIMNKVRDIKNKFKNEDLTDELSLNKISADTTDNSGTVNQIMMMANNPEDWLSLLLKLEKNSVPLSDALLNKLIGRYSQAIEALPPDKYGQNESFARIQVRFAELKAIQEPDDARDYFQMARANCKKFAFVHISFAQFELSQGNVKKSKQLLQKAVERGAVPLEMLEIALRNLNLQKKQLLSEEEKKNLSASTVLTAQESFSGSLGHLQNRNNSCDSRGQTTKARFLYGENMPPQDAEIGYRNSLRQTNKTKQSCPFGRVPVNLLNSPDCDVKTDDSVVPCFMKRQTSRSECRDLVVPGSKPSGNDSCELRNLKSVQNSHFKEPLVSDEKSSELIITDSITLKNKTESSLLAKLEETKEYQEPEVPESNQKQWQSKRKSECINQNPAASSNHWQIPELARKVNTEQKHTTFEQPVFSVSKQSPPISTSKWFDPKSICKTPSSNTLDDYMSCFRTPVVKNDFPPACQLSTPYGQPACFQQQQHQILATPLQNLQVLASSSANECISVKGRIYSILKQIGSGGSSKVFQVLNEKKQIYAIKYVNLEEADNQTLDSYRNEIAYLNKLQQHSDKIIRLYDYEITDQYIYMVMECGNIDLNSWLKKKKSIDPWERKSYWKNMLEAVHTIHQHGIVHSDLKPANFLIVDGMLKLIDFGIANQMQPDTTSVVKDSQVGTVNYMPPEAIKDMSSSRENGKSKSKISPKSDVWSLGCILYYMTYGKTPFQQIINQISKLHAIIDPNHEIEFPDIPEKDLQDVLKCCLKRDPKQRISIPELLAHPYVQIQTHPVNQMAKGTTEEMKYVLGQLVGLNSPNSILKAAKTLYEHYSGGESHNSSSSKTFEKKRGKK

| SMILES | IC50 [nM] |
| --- | --- |
| COc1cc(-c2cnn(C)c2)ccc1Nc1cc2nc(C(=O)N(C)C)ccc2cn1 [Example 107, 7-(2-Methoxy-4-(1-methyl-1H-pyrazol-4-yl)phenylamino)-N,N-dimethyl-1,6-naphthyridine-2-carboxamide] | 411 |
| COCCn1cc(-c2ccc3cnc(Nc4ccc(-c5cnc(C)n5C)cc4OC)cc3c2)cn1 [Example 14, N-(4-(1,2-dimethyl-1H-imidazol-5-yl)-2-methoxyphenyl)-6-(1-(2-methoxyethyl)-1H-pyrazol-4-yl)isoquinolin-3-amine] | 20 |
| COc1cc(-c2nnc3n2CCN(C)C3)ccc1Nc1cc2cc(-c3cnn(CC(C)(C)O)c3)ccc2cn1 [Example 70, 1-(4-(3-((2-Methoxy-4-(7-methyl-5,6,7,8-tetrahydro-[1,2,4]triazolo[4,3-a]pyrazin-3-yl)-phenyl)amino)isoquinolin-6-yl)-1H-pyrazol-1-yl)-2-methylpropan-2-ol] | 2 |
| COc1cc(-c2cnc(C)n2C)ccc1Nc1cc2cc(-c3cnn(CC(C)O)c3)ccc2cn1 (racemic) [Example 38, 1-(4-(3-((4-(1,2-Dimethyl-1H-imidazol-5-yl)-2-methoxyphenyl)amino)isoquinolin-6-yl)-1H-pyrazol-1-yl)propan-2-ol] | 2 |
| COc1cc(-c2cnc(C)n2C)ccc1Nc1cc2cc(-c3cnn(CC4(C)COC4)c3)ccc2cn1 [Example 30, N-(4-(1,2-Dimethyl-1H-imidazol-5-yl)-2-methoxyphenyl)-6-(1-((3-methyloxetan-3-yl)methyl)-1H-pyrazol-4-yl)isoquinolin-3-amine] | 2 |
| COc1cc(C(=O)N2CC(F)(F)C2)ccc1Nc1cc2cc(-c3cnn(CC(C)(C)O)c3)ccc2cn1 [Example 93, (3,3-Difluoroazetidin-1-yl)(4-(6-(1-(2-hydroxy-2-methylpropyl)-1H-pyrazol-4-yl)isoquinolin-3-ylamino)-3-methoxyphenyl)methanone] | 5 |
| COc1cc(-c2cnc(C)n2C)ccc1Nc1cc2cc(-c3cnn(C)c3)ccc2cn1 [Example 23, N-(4-(1,2-dimethyl-1H-imidazol-5-yl)-2-methoxyphenyl)-6-(1-methyl-1H-pyrazol-4-yl)isoquinolin-3-amine] | 2 |
| COc1cc(-c2cnc(C)n2C)ccc1Nc1cc2cc(-c3ccc(N(C)C)nc3)ccc2cn1 [Example 8, N-(4-(1,2 dimethyl-1H-imidazol-5-yl)-2-methoxyphenyl)-6-(6-(dimethylamino)pyridin-3-yl)isoquinolin-3-amine] | 108 |
| COc1cc(C(=O)N2CC(OC)C2)ccc1Nc1cc2nc(-c3cnn(CC(C)(C)O)c3)ccc2cn1 [Example 104, (4-(2-(1-(2-Hydroxy-2-methylpropyl)-1H-pyrazol-4-yl)-1,6-naphthyridin-7-ylamino)-3-methoxyphenyl)(3-methoxyazetidin-1-yl)methanone] | 2 |
| COc1cc(-c2cnn(C)c2CO)ccc1Nc1cc2cc(-c3cnn(CC(C)(C)O)c3)ccc2cn1 [Example 36, 1-(4-(3-((4-(5-(Hydroxymethyl)-1-methyl-1H-pyrazol-4-yl)-2-methoxyphenyl)amino)-isoquinolin-6-yl)-1H-pyrazol-1-yl)-2-methylpropan-2-ol] | 3 |
| COc1cc(-c2cnc(C)n2C)ccc1Nc1cc2cc(-c3cnn(CC4COC4)c3)ccc2cn1 [Example 37, N-(4-(1,2-Dimethyl-1H-imidazol-5-yl)-2-methoxyphenyl)-6-(1-(oxetan-3-ylmethyl)-1H-pyrazol-4-yl)isoquinolin-3-amine] | 5 |
| COc1cc(C(=O)NC2CCN(C)CC2)ccc1Nc1cc2cc(-c3cnn(CC(C)(C)O)c3)ccc2cn1 [Example 67, 4-((6-(1-(2-Hydroxy-2-methylpropyl)-1H-pyrazol-4-yl)isoquinolin-3-yl)amino)-3-methoxy-N-(1-methylpiperidin-4-yl)benzamide] | 5 |
| COc1cc(C(=O)N2CCS(=O)(=O)CC2)ccc1Nc1cc2cc(-c3cnn(CC(C)(C)O)c3)ccc2cn1 [Example 65, (1,1-Dioxidothiomorpholino)(4-((6-(1-(2-hydroxy-2-methylpropyl)-1H-pyrazol-4-yl)isoquinolin-3-yl)amino)-3-methoxyphenyl)methanone] | 2 |

The remaining lines, values ahead:

| IC50 [nM] | SMILES |
| --- | --- |
| 3 | COc1cc(-c2cnc(C)n2C)ccc1Nc1cc2cc(-c3cnn(CC4(O)CCC4)c3)ccc2cn1 [Example 43, 1-((4-(3-((4-(1,2-Dimethyl-1H-imidazol-5-yl)-2-methoxyphenyl)amino)isoquinolin-6-yl)-1H-pyrazol-1-yl)methyl)cyclobutanol] |
| 3 | COc1cc(C(=O)N2CC(OC)C2)ccc1Nc1cc2cc(-c3cnn(CC(O)C(F)(F)F)c3)ccc2cn1 (racemic) [Example 75, (3-Methoxy-4-((6-(1-(3,3,3-trifluoro-2-hydroxypropyl)-1H-pyrazol-4-yl)isoquinolin-3-yl)amino)-phenyl)(3-methoxyazetidin-1-yl)methanone] |
| 5 | COc1cc(-c2cnc(C#N)n2C)ccc1Nc1cc2cc(-c3cnn(CC(C)(C)O)c3)ccc2cn1 [Example 84, 5-(4-((6-(1-(2-Hydroxy-2-methylpropyl)-1H-pyrazol-4-yl)isoquinolin-3-yl)amino)-3-methoxyphenyl)-1-methyl-1H-imidazole-2-carbonitrile] |
| 2 | COc1c(Nc2cc3cc(-c4cnn(CC(C)(C)O)c4)ccc3cn2)ccc(-c2cnc(C)n2C)c1F [Example 50, 1-(4-(3-(4-(1,2-Dimethyl-1H-imidazol-5-yl)-3-fluoro-2-methoxyphenylamino)isoquinolin-6-yl)-1H-pyrazol-1-yl)-2-methylpropan-2-ol] |
| 4 | CC(C)(O)Cn1cc(-c2ccc3cnc(Nc4ccc(S(C)(=O)=O)cc4Cl)cc3c2)cn1 [Example 59, 1-(4-(3-((2-Chloro-4-(methylsulfonyl)phenyl)amino)isoquinolin-6-yl)-1H-pyrazol-1-yl)-2-methylpropan-2-ol] |
| 3 | COc1cc(-c2cnc(C)n2C)cnc1Nc1cc2cc(-c3cnn(CC(C)(C)O)c3)ccc2cn1 [Example 57, 1-(4-(3-((5-(1,2-Dimethyl-1H-imidazol-5-yl)-3-methoxypyridin-2-yl)amino)isoquinolin-6-yl)-1H-pyrazol-1-yl)-2-methylpropan-2-ol] |
| 6 | COc1cc(-c2cnc(C)n2C)ccc1Nc1cc2cc(-c3cnn(CC4COC(C)(C)O4)c3)ccc2cn1 (racemic) [Example 40, 6-(1-((2,2-Dimethyl-1,3-dioxolan-4-yl)methyl)-1H-pyrazol-4-yl)-N-(4-(1,2-dimethyl-1H-imidazol-5-yl)-2-methoxyphenyl)isoquinolin-3-amine] |
| 110 | COc1cc(-c2cnc(C)n2C)ccc1Nc1cc2cc(-c3cnn(C4CCN(C(=O)OC(C)(C)C)CC4)c3)ccc2cn1 [Example 4, tert-Butyl 4-(4-(3-((4-(1,2-dimethyl-1H-imidazol-5-yl)-2-methoxyphenyl)amino)isoquinolin-6-yl)-1H-pyrazol-1-yl)piperidine-1-carboxylate] |
| 5 | CNC(=O)c1ccc2cnc(Nc3ccc(-c4cnc(C)n4C)cc3OC)cc2c1 [Example 90, 3-((4-(1,2-Dimethyl-1H-imidazol-5-yl)-2-methoxyphenyl)amino)-N-methylisoquinoline-6-carboxamide] |
| 9 | COc1cc(C(=O)N2CC(OC)C2)ccc1Nc1cc2cc(-c3cnn(CC(C)(C)O)n3)ccc2cn1 [Example 97, (4-(6-(2-(2-Hydroxy-2-methylpropyl)-2H-1,2,3-triazol-4-yl)isoquinolin-3-ylamino)-3-methoxyphenyl)(3-methoxyazetidin-1-yl)methanone] |
